Data: US20180327367A1, “MACROCYCLIC BROAD SPECTRUM ANTIBIOTICS” (priority 2015, published 2018)
Values after ≈ are worked out from the molar mass of the structure shown. Where two headings read alike, the source gives them in different places.

Assays:
[1] = test system: Escherichia coli ATCC 25922; experiment: Minimum inhibitory concentration, broth micro-dilution (CLSI), E. coli; type: cell-based; conditions: 35° C., 22 hours; for MIC: Escherichia coli, ATCC25922, 22 h
[2] = test system: Methicillin Resistant Staphylococcus aureus strain USA 300, NRS384; experiment: Minimum inhibitory concentration, broth micro-dilution (CLSI), S. aureus; type: cell-based; conditions: 35° C., 22 hours; for MIC: Staphylococcus aureus, MRSA / NRS 384 / USA300, 22 h
In short: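 CLSI broth microdilution in cation-adjusted Mueller Hinton Broth with 0.002% Tween-80; inoculum final OD600 0.0005, 22 hours at 35° C. Ten 2-fold dilutions starting at 4 μg/mL (protocol 2) or 0.5 μg/mL (protocol 3).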

[3] = molecular target: T1, SpsB (Staphylococcus aureus signal peptidase) (Staphylococcus aureus, UniProt P0A070); experiment: cell-based; type: biochemical; conditions: fluorogenic peptide substrate, kinetic read 30 min
T1 construct: This assay uses a suspension of Staphylococcus aureus cells as a source of SpsB instead of recombinant SpsB protein; endogenous in cells; host or cells: S. aureus, USA300 background, overexpressing SpsB (whole-cell suspension from frozen pellets)
Procedure: A kinetic fluorogenic enzyme activity assay was used to assess inhibition of SpsB (Staphylococcus aureus signal peptidase) activity and IC50s were determined. This assay uses a suspension of Staphylococcus aureus cells as a source of SpsB instead of recombinant SpsB protein.
Cell preparation: Luria broth (LB) was inoculated with S. aureus (USA300 background, overexpressing SpsB) and shaken at 37° C. until an OD600 nm of 1.5-2.0 was reached (˜4 hr). The culture was then diluted to an OD600 nm of 1.0 with LB, aliquoted and centrifuged at 10,000×g for 2 mins. The supernatant was removed and the pellet was resuspended in phosphate buffer (1×PBS, 12.5 mg/L MgCl2, 25 mg/L CaCl2, 0.1% Tween-80) to an OD600 nm of 0.5, then centrifuged again at 10,000x g for 2 mins. The supernatant was removed and the pellets were frozen at −20° C.
Test compounds were prepared in DMSO at a concentration of 10 mg/mL. These compound stocks were diluted into DMSO to a concentration of 25 μg/mL and serial 3-fold dilutions were made in DMSO, for a total of 11 compound concentrations. 20 nL of each compound solution was pre-spotted into a white 384-well plate (50 μL/well polypropylene, Nunc) using acoustic fluid transfer (Echo).
Frozen S. aureus pellets were resuspended in assay buffer (1x PBS, 12.5 mg/L MgCl2, 25 mg/L CaCl2, 0.1% Tween-80) to an OD600 nm of 0.05, then mixed 1:1 (v/v) with 20 μM substrate ((Dabcyl)βAla-KPAKAAE(Edans)) in assay buffer, and this solution was added (20 μL/well) to the 384-well plate that had been pre-spotted with compound. Fluorescence intensity was then immediately read kinetically for 30 minutes with 2 minute read intervals to monitor cleavage of the internally quenched peptide substrate (excitation wavelength=340 nm, emission wavelength=490 nm, Molecular Devices Spectramax M5). Reaction rate (slope) was plotted against inhibitor concentration to derive the IC50.

[4] = test system: Escherichia coli MC4100 harboring the IMP4213 (E. coli IMP); experiment: microbe, parasite or virus in culture; type: cell-based; conditions: 35° C., 22 hours; for MIC: Escherichia coli, 22 h, read-out: MIC (μg/mL) E. coli IMP, E. coli MC4100 IMP4213, increased outer-membrane permeability
In short: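 Top conc 4 μg/mL (protocol 2) or 0.5 μg/mL (protocol 3), 2-fold series, 10 points. Final OD600 0.0005; 22 h, 35° C. IMP4213 = permeable outer membrane.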

[5] = read-out: MIC (μg/mL) E. coli, E. coli ATCC 25922
[6] = read-out: MIC (μg/mL) S. aureus, MRSA USA 300 NRS384
[7] = SpsB IC50, whole-cell S. aureus (USA300 background, overexpressing SpsB) as SpsB source
[8] = E. coli ATCC 25922, read-out: MIC (μg/mL) E. coli
[9] = MRSA USA 300 NRS384, read-out: MIC (μg/mL) S. aureus

T1 sequence (P0A070 whole entry): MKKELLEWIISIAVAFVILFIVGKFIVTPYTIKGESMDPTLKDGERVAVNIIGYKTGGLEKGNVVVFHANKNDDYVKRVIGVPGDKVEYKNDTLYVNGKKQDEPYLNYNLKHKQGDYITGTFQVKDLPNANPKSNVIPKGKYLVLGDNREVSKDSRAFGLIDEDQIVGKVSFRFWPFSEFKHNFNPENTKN

Row | SMILES | MIC [1, 5] [µg/mL] | MIC [2, 6] [µg/mL] | IC50 [3, 7] [nM] | MIC [4] [µg/mL] | MIC (μg/mL) E. coli ([1]; E. coli ATCC 25922) [µg/mL] | MIC (μg/mL) S. aureus ([2]; MRSA USA 300 NRS384) [µg/mL] | MIC (μg/mL) E. coli IMP ([4]; E. coli MC4100 IMP4213, increased outer-membrane permeability) [µg/mL] | MIC [1, 8] [µg/mL] | MIC [2, 9] [µg/mL] | IC50 ([3]; read-out: SpsB IC50, whole-cell S. aureus (USA300 background, overexpressing SpsB) as SpsB source) [nM]
1 | CCCCCCCCC(F)C(=O)NC(CO)C(=O)N(C)C1C(=O)NC(C)C(=O)NC(C(=O)NCC#N)Cc2ccc(OCCN)c(c2)-c2cc1ccc2OCCN (single isomer, unassigned) [Compound 394-P1] | > 64 | 1 (≈ 1.25 µM) | 3.9 | 0.25 (≈ 0.314 µM) | – | – | – | – | – | –
2 | CCCCCCCCC(F)C(=O)NC(CO)C(=O)N(C)C1C(=O)NC(C)C(=O)NC(C(=O)NCC#N)Cc2ccc(OCCN)c(c2)-c2cc1ccc2OCCN (single isomer, unassigned) [Compound 394-P2] | – | – | 2.7 | – | 64 (≈ 80.3 µM) | 0.5 (≈ 0.627 µM) | 0.38 (≈ 0.477 µM) | – | – | –
3 | CCCCCCCCCCNCCC(=O)N[C@@H](CCCCN)C(=O)N(C)[C@@H]1C(=O)N[C@@H](C)C(=O)N[C@H](C(=O)NCC#N)Cc2ccc(OCCN)c(c2)-c2cc1ccc2OCCN [Compound 101] | – | – | 0.72 | 1.7 (≈ 1.94 µM) | – | – | – | 48 (≈ 54.7 µM) | 0.094 (≈ 0.107 µM) | –
4 | CCCCCCCCCCCCC(=O)N[C@@H](CCN)C(=O)N(C)[C@@H]1C(=O)N[C@@H](C)C(=O)N[C@H](C(=O)NCC#N)Cc2ccc(OCCN)c(c2)-c2cc1ccc2OCCN [Compound 102] | – | – | 0.52 | 0.0078 (≈ 0.00935 µM) | – | – | – | 0.25 (≈ 0.3 µM) | 0.023 (≈ 0.0276 µM) | –
5 | CCCCCCCCCCCC(=O)N[C@@H](CCN)C(=O)N(C)[C@@H]1C(=O)N[C@@H](C)C(=O)N[C@H](C(=O)NCC#N)Cc2ccc(OCCN)c(c2)-c2cc1ccc2OCCN [Compound 103] | – | – | 0.57 | 0.0078 (≈ 0.00951 µM) | – | – | – | 1 (≈ 1.22 µM) | 0.023 (≈ 0.028 µM) | –
6 | CCCCCCCCCCC(=O)N[C@@H](CCN)C(=O)N(C)[C@@H]1C(=O)N[C@@H](C)C(=O)N[C@H](C(=O)NCC#N)Cc2ccc(OCCN)c(c2)-c2cc1ccc2OCCN [Compound 104] | – | – | 0.5 | 0.023 (≈ 0.0285 µM) | – | – | – | 4 (≈ 4.96 µM) | 0.047 (≈ 0.0583 µM) | –
7 | CCCCCCCCCC(=O)N[C@@H](CCN)C(=O)N(C)[C@@H]1C(=O)N[C@@H](C)C(=O)N[C@H](C(=O)NCC#N)Cc2ccc(OCCN)c(c2)-c2cc1ccc2OCCN [Compound 105] | – | – | 0.82 | 0.031 (≈ 0.0391 µM) | – | – | – | 8 (≈ 10.1 µM) | 0.13 (≈ 0.164 µM) | –
8 | CCCCCCCCC(=O)N[C@@H](CCN)C(=O)N(C)[C@@H]1C(=O)N[C@@H](C)C(=O)N[C@H](C(=O)NCC#N)Cc2ccc(OCCN)c(c2)-c2cc1ccc2OCCN [Compound 106] | – | – | 1.7 | 0.13 (≈ 0.167 µM) | – | – | – | 24 (≈ 30.8 µM) | 0.38 (≈ 0.488 µM) | –
9 | CCCCCCCC(=O)N[C@@H](CCN)C(=O)N(C)[C@@H]1C(=O)N[C@@H](C)C(=O)N[C@H](C(=O)NCC#N)Cc2ccc(OCCN)c(c2)-c2cc1ccc2OCCN [Compound 107] | – | – | 4 | 0.38 (≈ 0.497 µM) | – | – | – | 32 (≈ 41.9 µM) | 1 (≈ 1.31 µM) | –
10 | C[C@@H]1NC(=O)[C@@H](N(C)C(=O)[C@H](CCCCN)NC(=O)c2ccc(-c3ccc(C(C)(C)C)cc3)cc2)c2ccc(OCCN)c(c2)-c2cc(ccc2OCCN)C[C@@H](C(=O)NCC#N)NC1=O [Compound 108] | 0.5 (≈ 0.554 µM) | 0.063 (≈ 0.0698 µM) | 1.2 | 0.047 (≈ 0.0521 µM) | – | – | – | – | – | –
11 | COc1ccc(-c2ccc(C(=O)N[C@@H](CCCCN)C(=O)N(C)[C@@H]3C(=O)N[C@@H](C)C(=O)N[C@H](C(=O)NCC#N)Cc4ccc(OCCN)c(c4)-c4cc3ccc4OCCN)cc2)cc1OC [Compound 109] | – | – | 7.5 | 1 (≈ 1.1 µM) | – | – | – | > 64 | 2 (≈ 2.21 µM) | –
12 | C[C@@H]1NC(=O)[C@@H](N(C)C(=O)[C@H](CCCCN)NC(=O)c2ccc(/C=C/c3ccccc3)cc2)c2ccc(OCCN)c(c2)-c2cc(ccc2OCCN)C[C@@H](C(=O)NCC#N)NC1=O [Compound 110] | 8 (≈ 9.17 µM) | 0.19 (≈ 0.218 µM) | 0.96 | 0.063 (≈ 0.0722 µM) | – | – | – | – | – | –
13 | C[C@@H]1NC(=O)[C@@H](N(C)C(=O)[C@H](CCCCN)NC(=O)c2ccc(-c3cc(Cl)cc(Cl)c3)cc2)c2ccc(OCCN)c(c2)-c2cc(ccc2OCCN)C[C@@H](C(=O)NCC#N)NC1=O [Compound 111] | 8 (≈ 8.74 µM) | 0.13 (≈ 0.142 µM) | 1 | 0.13 (≈ 0.142 µM) | – | – | – | – | – | –
14 | C[C@@H]1NC(=O)[C@@H](N(C)C(=O)[C@H](CCCCN)NC(=O)c2ccc(-c3ccc(C(F)(F)F)cc3)cc2)c2ccc(OCCN)c(c2)-c2cc(ccc2OCCN)C[C@@H](C(=O)NCC#N)NC1=O [Compound 112] | 8 (≈ 8.75 µM) | 0.13 (≈ 0.142 µM) | 0.77 | 0.13 (≈ 0.142 µM) | – | – | – | – | – | –
15 | C[C@@H]1NC(=O)[C@@H](N(C)C(=O)[C@H](CCCCN)NC(=O)c2cccc(-c3ccc(Cl)cc3)c2)c2ccc(OCCN)c(c2)-c2cc(ccc2OCCN)C[C@@H](C(=O)NCC#N)NC1=O [Compound 113] | 32 (≈ 36.3 µM) | 0.19 (≈ 0.216 µM) | 0.51 | 0.13 (≈ 0.148 µM) | – | – | – | – | – | –
16 | C[C@@H]1NC(=O)[C@@H](N(C)C(=O)[C@H](CCCCN)NC(=O)c2ccccc2-c2ccc(Cl)cc2)c2ccc(OCCN)c(c2)-c2cc(ccc2OCCN)C[C@@H](C(=O)NCC#N)NC1=O [Compound 114] | > 64 | 2 (≈ 2.27 µM) | 6.1 | 2 (≈ 2.27 µM) | – | – | – | – | – | –
17 | C[C@@H]1NC(=O)[C@@H](N(C)C(=O)[C@H](CCCCN)NC(=O)c2ccc(Oc3ccc(Cl)cc3)cc2)c2ccc(OCCN)c(c2)-c2cc(ccc2OCCN)C[C@@H](C(=O)NCC#N)NC1=O [Compound 116] | 12 (≈ 13.4 µM) | 0.13 (≈ 0.145 µM) | 1.3 | 0.063 (≈ 0.0703 µM) | – | – | – | – | – | –
18 | C[C@@H]1NC(=O)[C@@H](N(C)C(=O)[C@H](CCCCN)NC(=O)Cc2ccc(-c3ccc(Cl)cc3)cc2)c2ccc(OCCN)c(c2)-c2cc(ccc2OCCN)C[C@@H](C(=O)NCC#N)NC1=O [Compound 117] | > 64 | 0.13 (≈ 0.145 µM) | 2 | 0.5 (≈ 0.559 µM) | – | – | – | – | – | –
19 | C[C@@H]1NC(=O)[C@@H](N(C)C(=O)[C@H](CCCCN)NC(=O)c2ccc(-c3ccc(-c4ccccc4)cc3)cc2)c2ccc(OCCN)c(c2)-c2cc(ccc2OCCN)C[C@@H](C(=O)NCC#N)NC1=O [Compound 118] | 0.75 (≈ 0.813 µM) | 0.063 (≈ 0.0683 µM) | 1.4 | 0.031 (≈ 0.0336 µM) | – | – | – | – | – | –
20 | C[C@@H]1NC(=O)[C@@H](N(C)C(=O)[C@H](CCN)NC(=O)c2ccc(C#Cc3ccccc3)cc2)c2ccc(OCCN)c(c2)-c2cc(ccc2OCCN)C[C@@H](C(=O)NCC#N)NC1=O [Compound 120] | 0.44 (≈ 0.523 µM) | 0.094 (≈ 0.112 µM) | 1 | 0.016 (≈ 0.019 µM) | – | – | – | – | – | –
21 | C[C@@H]1NC(=O)[C@@H](N(C)C(=O)[C@H](CCN)NC(=O)c2ccc(CCc3ccccc3)cc2)c2ccc(OCCN)c(c2)-c2cc(ccc2OCCN)C[C@@H](C(=O)NCC#N)NC1=O [Compound 121] | 2 (≈ 2.36 µM) | 0.13 (≈ 0.154 µM) | 1.2 | 0.023 (≈ 0.0272 µM) | – | – | – | – | – | –
22 | C[C@@H]1NC(=O)[C@@H](N(C)C(=O)[C@H](CCN)NC(=O)c2ccc(-c3ccc(-c4ccccc4)cc3)cc2)c2ccc(OCCN)c(c2)-c2cc(ccc2OCCN)C[C@@H](C(=O)NCC#N)NC1=O [Compound 122] | 0.25 (≈ 0.28 µM) | 0.063 (≈ 0.0705 µM) | 1.6 | 0.031 (≈ 0.0347 µM) | – | – | – | – | – | –
23 | CCCCC1CCC(C(=O)N[C@@H](CCN)C(=O)N(C)[C@@H]2C(=O)N[C@@H](C)C(=O)N[C@H](C(=O)NCC#N)Cc3ccc(OCCN)c(c3)-c3cc2ccc3OCCN)CC1 (some centres unmarked) [Compound 123] | – | – | – | 0.0078 (≈ 0.0097 µM) | – | – | – | 0.5 (≈ 0.622 µM) | 0.19 (≈ 0.236 µM) | 1.2
